This passage reports IC50 results from patent publication US20240316051A1, “A PHARMACEUTICAL COMBINATION AND USE THEREOF” (Ascentage Pharma (Suzhou) Co., Ltd., priority 2021, published 2024).

Some results are limits rather than exact numbers.

For one assay, the target named is T1, EED (1-441)-His protein (Homo sapiens, UniProt O75530).
T1 construct: 20 nM EED (1-441)-His protein
T1 sequence (O75530 whole entry): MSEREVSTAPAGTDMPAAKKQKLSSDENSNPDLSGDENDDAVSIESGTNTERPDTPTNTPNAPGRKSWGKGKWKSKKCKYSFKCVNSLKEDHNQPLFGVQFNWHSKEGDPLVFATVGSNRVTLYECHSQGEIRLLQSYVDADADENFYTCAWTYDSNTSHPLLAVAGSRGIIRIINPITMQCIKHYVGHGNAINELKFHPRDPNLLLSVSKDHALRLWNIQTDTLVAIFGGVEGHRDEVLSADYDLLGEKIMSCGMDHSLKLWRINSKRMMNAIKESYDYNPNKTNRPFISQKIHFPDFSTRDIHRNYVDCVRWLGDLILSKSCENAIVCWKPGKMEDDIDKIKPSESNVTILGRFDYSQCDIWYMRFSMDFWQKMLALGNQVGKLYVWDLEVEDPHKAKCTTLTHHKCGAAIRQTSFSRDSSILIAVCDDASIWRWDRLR
The assay is described as follows: EED-H3K27Me3 peptide competition binding assay by AlphaScreen. The settings on record: IC50 class, Table 4B, read-out: Alpha screen. The essentials: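 Readout was AlphaScreen emission at 615 nm after 680 nm excitation, with 10 μg/ml final each of streptavidin donor and nickel chelate acceptor beads, 1 h at RT in the dark. Beforehand, compound met the His-tagged EED(1-441) for 15 min and then biotinylated H3K27Me3(19-33) peptide for 30 min; both were added as 20 nM solutions, buffer 25 mM HEPES pH 8, Tween-20, BSA. Percent activity left was fitted to give IC50.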
For `Cc1onc2c1Cc1cc(C(F)(F)F)ncc1-c1cnc(NCc3c(F)ccc4c3CCO4)n3cnc-2c13` [E 35, N-((5-fluoro-2,3-dihydrobenzofuran-4-yl)methyl)-5-methyl-8-(trifluoromethyl)-6H-4-oxa-2,3,9,12, 13a-pentaazabenzo[4,5]cyclopenta[7,8]cycloocta [1,2,3-cd]inden-13-amine], the IC50 lay in the range of 10 to 100 nM.

Take `Cc1ccc2c(n1)CN(CC(F)(F)F)C(=O)c1ncn3c(NCc4c(F)ccc5c4CCCO5)ncc-2c13` [E 39, 12-(((6-fluorochroman-5-yl)methyl)amino)-7-methyl-4-(2,2,2-trifluoroethyl)-4,5-dihydro-3H-2,4,6, 11,12a-pentaazabenzo[4,5]cycloocta[1,2,3-cd] inden-3-one]: the IC50 lay in the range of 10 to 100 nM.

As for `CC(C)c1ccc2c(n1)CN(CC(F)F)C(=O)c1ncn3c(NCc4c(F)ccc5c4CCO5)ncc-2c13` [E 47, 4-(2,2-difluoroethyl)-12-(((5-fluoro-2,3-dihydrobenzofuran-4-yl)methyl)amino)-7-isopropyl-4,5-dihydro-3H-2,4,6,11,12a-pentaazabenzo[4,5]cycloocta[1,2,3-cd]inden-3-one], the IC50 is less than 10 nM.

`Cc1ccc2c(n1)Cc1conc1-c1ncn3c(NCc4c(F)ccc5c4CCO5)ncc-2c13` [E 36, N-((5-fluoro-2,3-dihydrobenzofuran-4-yl)methyl)-8-methyl-6H-4-oxa-2,3,7,12,13a-pentaazabenzo [4,5]cyclopenta[7,8]cycloocta[1,2,3-cd]inden-13-amine]: the IC50 was 10 to 100 nM.

With `Cc1cnc2n1Cc1ncccc1-c1cnc(NCc3c(F)ccc4c3CCO4)n3cnc-2c13` [E 17, N-((5-fluoro-2,3-dihydrobenzofuran-4-yl)methyl)-5-methyl-6H-2,3,5a,7,12,13a-hexaazabenzo[4,5] cyclopenta[7,8]cycloocta[1,2,3-cd]inden-13-amine], the IC50 is less than 10 nM.

`CCc1ccc2c(n1)CN(CC(F)(F)F)C(=O)c1ncn3c(NCc4c(F)ccc5c4CCO5)ncc-2c13` [E 12, 7-ethyl-12-(((5-fluoro-2,3-dihydrobenzofuran-4-yl)methyl)amino)-4-(2,2,2-trifluoroethyl)-4,5-dihydro-3H-2,4,6,11,12a-pentaazabenzo[4,5]cycloocta [1,2,3-cd]inden-3-one]: the IC50 was less than 10 nM.

`O=C1c2ncn3c(NCc4c(F)ccc5c4CCO5)ncc(c23)-c2ccc(C(F)(F)F)nc2CN1CC(F)F` [E 8, 4-(2,2-difluoroethyl)-12-(((5-fluoro-2,3-dihydro-benzofuran-4-yl)methyl)amino)-7-(trifluoromethyl)-4,5-dihydro-3H-2,4,6, 11,12a-pentaazabenzo[4,5] cycloocta[1,2,3-cd]inden-3-one]: the IC50 was less than 10 nM.

The same assay, now with this note: Table 4A, read-out: Alpha screen.
With `O=C1NCc2c(F)cccc2-c2cnc(NCc3c(F)ccc4c3CCO4)n3cnc1c23` [Compound 20, 6-fluoro-12-(((5-fluoro-2,3-dihydrobenzofuran-4-yl)methyl)amino)-4,5-dihydro-3H-2,4,11,12a-tetra azabenzo[4,5]cycloocta[1,2,3-cd]inden-3-one], the IC50 stood at 0.61 nM.

On to `CC(C)(O)CN1Cc2nc(C(F)(F)F)ccc2-c2cnc(NCc3c(F)ccc4c3CCO4)n3cnc(c23)C1=O` [Compound 58, 12-(((5-fluoro-2,3-dihydrobenzofuran-4-yl)methyl)amino)-4-(2-hydroxy-2-methylpropyl)-7-(trifluoro-methyl)-4,5-dihydro-3H-2,4,6,11,12a-pentaazabenzo [4,5]cycloocta[1,2,3-cd]inden-3-one], for which the IC50 was found to be 2.74 nM.

As to `O=C1c2ncn3c(NCc4c(F)ccc5c4CCO5)ncc(c23)-c2ccc(C(F)(F)F)cc2CN1CC1COCCO1` (stereo not shown) [Compound 68, 4-((1,4-dioxan-2-yl)methyl)-12-(((5-fluoro-2,3-dihydrobenzofuran-4-yl)methyl)amino)-7-(trifluoro-methyl)-4,5-dihydro-3H-2,4,11,12a-tetraazabenzo [4,5]cycloocta[1,2,3-cd]inden-3-one], the IC50 is 3.86 nM.

Regarding `CC(C)N1Cc2nc(C(F)(F)F)ccc2-c2cnc(NCc3c(F)ccc4c3CCO4)n3cnc(c23)C1=O` [Compound 59, 12-(((5-fluoro-2,3-dihydrobenzofuran-4-yl)methyl)amino)-4-isopropyl-7-(trifluoromethyl)-4,5-dihydro-3H-2,4,6,11,12a-pentaazabenzo[4,5]cycloocta [1,2,3-cd]inden-3-one], the IC50 was 2.14 nM.

Take `O=C1OCc2cc(C(F)(F)F)ccc2-c2cnc(NCc3cccc4c3OCO4)n3cnc1c23` [Compound 27, 12-((benzo[d][1,3]dioxol-4-ylmethyl)amino)-7-(trifluoromethyl)-3H,5H-4-oxa-2,11,12a-triazabenzo [4,5]cycloocta[1,2,3-cd]inden-3-one]: the IC50 came out at 5.87 nM.

Consider `Cc1ccc2c(n1)COC(=O)c1ncn3c(NCc4c(F)ccc5c4CCO5)ncc-2c13` [Compound 18, 12-(((5-fluoro-2,3-dihydrobenzofuran-4-yl)methyl)amino)-7-methyl-3H,5H-4-oxa-2,6,11,12a-tetraazabenzo[4,5]cycloocta[1,2,3-cd]inden-3-one], for which the IC50 was found to be 0.7 nM.

Turning to `O=C1c2ncn3c(NCc4c(F)ccc5c4CCO5)ncc(c23)-c2ccc(C(F)(F)F)cc2CN1CC1CCOCC1` [Compound 66, 12-(((5-fluoro-2,3-dihydrobenzofuran-4-yl)methyl)amino)-4-((tetrahydro-2H-pyran-4-yl)methyl)-7-(trifluoromethyl)-4,5-dihydro-3H-2,4,11,12a-tetra-azabenzo[4,5]cycloocta[1,2,3-cd]inden-3-one], the IC50 came to 3.61 nM.

`CC1(O)CC(CN2Cc3cc(C(F)(F)F)ncc3-c3cnc(NCc4c(F)ccc5c4CCO5)n4cnc(c34)C2=O)C1` (stereo not shown) [Compound 49, 12-(((5-fluoro-2,3-dihydrobenzofuran-4-yl)methyl)amino)-4-((3-hydroxy-3-methylcyclobutyl)methyl)-7-(trifluoromethyl)-4,5-dihydro-3H-2,4,8,11,12a-pentaazabenzo[4,5]cycloocta[1,2,3-cd]inden-3-one]: the IC50 is 1.81 nM.

With `O=C1OCc2ccccc2-c2cnc(NCc3c(F)ccc4c3CCO4)n3cnc1c23` [Compound 6, 12-(((5-fluoro-2,3-dihydrobenzofuran-4-yl)methyl)amino)-3H,5H-4-oxa-2,11,12a-triazabenzo[4,5] cycloocta[1,2,3-cd]inden-3-one], the IC50 is 0.19 nM.

As to `O=C1OCc2cnc(C(F)(F)F)cc2-c2cnc(NCc3c(F)ccc4c3CCO4)n3cnc1c23` [Compound 32, 12-(((5-fluoro-2,3-dihydrobenzofuran-4-yl)methyl)amino)-8-(trifluoromethyl)-3H,5H-4-oxa-2,7,11, 12a-tetraazabenzo[4,5]cycloocta[1,2,3-cd]inden-3-one], the IC50 was 1.84 nM.

`O=C1OCc2ncccc2-c2cnc(NCc3c(F)ccc4c3CCO4)n3cnc1c23` [Compound 12, 12-(((5-fluoro-2,3-dihydrobenzofuran-4-yl)methyl)amino)-3H,5H-4-oxa-2,6,11,12a-tetraazabenzo[4,5]cycloocta[1,2,3-cd]inden-3-one]: the IC50 is 0.34 nM.

In the case of `O=C1NCc2ncccc2-c2cnc(NCc3c(F)ccc4c3CCO4)n3cnc1c23` [Compound 16, 12-(((5-fluoro-2,3-dihydrobenzofuran-4-yl)methyl)amino)-4,5-dihydro-3H-2,4,6,11,12a-pentaazabenzo[4,5]cycloocta[1,2,3-cd]inden-3-one], the IC50 was 0.7 nM.
